Measured values published in ChEMBL document CHEMBL1127612, “Maleimidoethyl 3-(tri-n-butylstannyl)hippurate: a useful radioiodination reagent for protein radiopharmaceuticals to enhance target selective radioactivity localization” (J Med Chem, 1994).
One block for each molecule: values may come before it.

Columns and labels:
[1] = system: Mus musculus; assay: Tested for biodistribution of radioactivity after 5 min of intravenous injection in mice blood; type: ADME, organism-based; settings: in vivo
[2] = system: Mus musculus; assay: Tested for biodistribution of radioactivity after 6 hr of intravenous injection in mice blood; type: ADME, organism-based; settings: in vivo
[3] = system: Mus musculus; assay: Tested for biodistribution of radioactivity after 24 hr of intravenous injection in mice liver; type: ADME, organism-based; settings: in vivo
[4] = system: Mus musculus; assay: Tested for biodistribution of radioactivity after 24 hr of intravenous injection in mice blood; type: ADME, organism-based; settings: in vivo
[5] = system: Mus musculus; assay: Tested for biodistribution of radioactivity after 3h of intravenous injection in mice intestines; type: ADME, organism-based, Intestine; settings: in vivo
[6] = system: Mus musculus; assay: Tested for biodistribution of radioactivity after 24 hr of intravenous injection in mice stomach; type: ADME, organism-based; settings: in vivo
[7] = system: Mus musculus; assay: Tested for biodistribution of radioactivity after 5 min of intravenous injection in mice liver; type: ADME, organism-based; settings: in vivo
[8] = system: Mus musculus; assay: Tested for biodistribution of radioactivity after 1 hr of intravenous injection in mice stomach; type: ADME, organism-based; settings: in vivo
[9] = system: Mus musculus; assay: Tested for biodistribution of radioactivity after 1 hr of intravenous injection in mice neck; type: ADME, organism-based; settings: in vivo
[10] = system: Mus musculus; assay: Tested for biodistribution of radioactivity after 6 hr of intravenous injection in mice spleen; type: ADME, organism-based; settings: in vivo
[11] = system: Mus musculus; assay: Tested for biodistribution of radioactivity after 1 hr of intravenous injection in mice spleen; type: ADME, organism-based; settings: in vivo
[12] = system: Mus musculus; assay: Tested for biodistribution of radioactivity after 1 hr of intravenous injection in mice intestines; type: ADME, organism-based, Intestine; settings: in vivo
[13] = system: Mus musculus; assay: Tested for biodistribution of radioactivity after 1 hr of intravenous injection in mice blood; type: ADME, organism-based; settings: in vivo
[14] = system: Mus musculus; assay: Tested for biodistribution of radioactivity after 30 min of intravenous injection in mice lintestines; type: ADME, organism-based, Intestine; settings: in vivo, 0.5 h
[15] = system: Mus musculus; assay: Tested for biodistribution of radioactivity after 5 min of intravenous injection in mice spleen; type: ADME, organism-based; settings: in vivo
[16] = system: Mus musculus; assay: Tested for biodistribution of radioactivity after 3h of intravenous injection in mice kidneys; type: ADME, organism-based, Kidney; settings: in vivo
[17] = system: Mus musculus; assay: Tested for biodistribution of radioactivity after 24 hr of intravenous injection in mice neck; type: ADME, organism-based; settings: in vivo
[18] = system: Mus musculus; assay: Tested for biodistribution of radioactivity after 30 min of intravenous injection in mice neck; type: ADME, organism-based; settings: in vivo, 0.5 h
[19] = system: Mus musculus; assay: Tested for biodistribution of radioactivity after 6 hr of intravenous injection in mice feces; type: ADME, organism-based; settings: in vivo
[20] = system: Mus musculus; assay: Tested for biodistribution of radioactivity after 3h of intravenous injection in mice neck; type: ADME, organism-based; settings: in vivo
[21] = system: Mus musculus; assay: Tested for biodistribution of radioactivity after 6 hr of intravenous injection in mice intestines; type: ADME, organism-based, Intestine; settings: in vivo
[22] = system: Mus musculus; assay: Tested for biodistribution of radioactivity after 24 hr of intravenous injection in mice feces; type: ADME, organism-based; settings: in vivo
[23] = system: Mus musculus; assay: Tested for biodistribution of radioactivity after 1 hr of intravenous injection in mice liver; type: ADME, organism-based; settings: in vivo
[24] = system: Mus musculus; assay: Tested for biodistribution of radioactivity after 24 hr of intravenous injection in mice spleen; type: ADME, organism-based; settings: in vivo
[25] = system: Mus musculus; assay: Tested for biodistribution of radioactivity after 3h of intravenous injection in mice spleen; type: ADME, organism-based; settings: in vivo
[26] = system: Mus musculus; assay: Tested for biodistribution of radioactivity after 3h of intravenous injection in mice blood; type: ADME, organism-based; settings: in vivo
[27] = system: Mus musculus; assay: Tested for biodistribution of radioactivity after 30 min of intravenous injection in mice spleen; type: ADME, organism-based; settings: in vivo, 0.5 h
[28] = system: Mus musculus; assay: Tested for biodistribution of radioactivity after 5 min of intravenous injection in mice neck; type: ADME, organism-based; settings: in vivo
[29] = system: Mus musculus; assay: Tested for biodistribution of radioactivity after 30 min of intravenous injection in mice blood; type: ADME, organism-based; settings: in vivo, 0.5 h
[30] = system: Mus musculus; assay: Tested for biodistribution of radioactivity after 30 min of intravenous injection in mice stomach; type: ADME, organism-based; settings: in vivo, 0.5 h
[31] = system: Mus musculus; assay: Tested for biodistribution of radioactivity after 6 hr of intravenous injection in mice stomach; type: ADME, organism-based; settings: in vivo
[32] = system: Mus musculus; assay: Tested for biodistribution of radioactivity after 1 hr of intravenous injection in mice kidneys; type: ADME, organism-based, Kidney; settings: in vivo
[33] = system: Mus musculus; assay: Tested for biodistribution of radioactivity after 3h of intravenous injection in mice stomach; type: ADME, organism-based; settings: in vivo
[34] = system: Mus musculus; assay: Tested for biodistribution of radioactivity after 6 hr of intravenous injection in mice liver; type: ADME, organism-based; settings: in vivo
[35] = system: Mus musculus; assay: Tested for biodistribution of radioactivity after 6 hr of intravenous injection in mice neck; type: ADME, organism-based; settings: in vivo
[36] = system: Mus musculus; assay: Tested for biodistribution of radioactivity after 24 hr of intravenous injection in mice kidneys; type: ADME, organism-based, Kidney; settings: in vivo
[37] = system: Mus musculus; assay: Tested for biodistribution of radioactivity after 5 min of intravenous injection in mice kidneys; type: ADME, organism-based; settings: in vivo
[38] = system: Mus musculus; assay: Tested for biodistribution of radioactivity after 6 hr of intravenous injection in mice urine; type: ADME, organism-based; settings: in vivo
[39] = system: Mus musculus; assay: Tested for biodistribution of radioactivity after 3h of intravenous injection in mice liver; type: ADME, organism-based; settings: in vivo
[40] = system: Mus musculus; assay: Tested for biodistribution of radioactivity after 6 hr of intravenous injection in mice kidneys; type: ADME, organism-based, Kidney; settings: in vivo
[41] = system: Mus musculus; assay: Tested for biodistribution of radioactivity after 24 hr of intravenous injection in mice intestines; type: ADME, organism-based, Intestine; settings: in vivo
[42] = system: Mus musculus; assay: Tested for biodistribution of radioactivity after 30 min of intravenous injection in mice liver; type: ADME, organism-based; settings: in vivo, 0.5 h
[43] = system: Mus musculus; assay: Tested for biodistribution of radioactivity after 5 min of intravenous injection in mice intestines; type: ADME, organism-based, Intestine; settings: in vivo
[44] = system: Mus musculus; assay: Tested for biodistribution of radioactivity after 30 min of intravenous injection in mice kidneys; type: ADME, organism-based; settings: in vivo, 0.5 h
[45] = system: Mus musculus; assay: Tested for biodistribution of radioactivity after 5 min of intravenous injection in mice stomach; type: ADME, organism-based; settings: in vivo
[46] = system: Mus musculus; assay: Tested for biodistribution of radioactivity after 24 hr of intravenous injection in mice urine; type: ADME, organism-based; settings: in vivo

Dose/g [1]: 0.45%
Dose/g [2]: 0.03%
Dose/organ [3]: 0.27%
Dose/g [4]: 0.02%
Dose/organ [5]: 2.54%
Dose/organ [6]: 0.05%
Dose/organ [7]: 92.56%
Dose/organ [8]: 0.56%
Dose/organ [9]: 0.06%
Dose/organ [10]: 0.07%
Dose/organ [11]: 0.1%
Dose/organ [12]: 6.11%
Dose/g [13]: 0.24%
Dose/organ [14]: 9.99%
Dose/organ [15]: 0.21%
Dose/organ [16]: 0.14%
Dose/organ [17]: 0.01%
Dose/organ [18]: 0.11%
Dose/organ [19]: 2.3%
Dose/organ [20]: 0.02%
Dose/organ [21]: 0.84%
Dose/organ [22]: 3.52%
Dose/organ [23]: 3.98%
Dose/organ [24]: 0.04%
Dose/organ [25]: 0.07%
Dose/g [26]: 0.09%
Dose/organ [27]: 0.12%
Dose/organ [28]: 0.07%
Dose/g [29]: 1.01%
Dose/organ [30]: 0.59%
Dose/organ [31]: 0.45%
Dose/organ [32]: 2.79%
Dose/organ [33]: 0.52%
Dose/organ [34]: 0.58%
Dose/organ [35]: 0.02%
Dose/organ [36]: 0.02%
Dose/organ [37]: 0.65%
Dose/organ [38]: 78.35%
Dose/organ [39]: 1.56%
Dose/organ [40]: 0.06%
Dose/organ [41]: 0.05%
Dose/organ [42]: 12.28%
Dose/organ [43]: 0.28%
Dose/organ [44]: 5.34%
Dose/organ [45]: 0.18%
Dose/organ [46]: 90.6%
Compound: CN[C@@H](CSC1CC(=O)N(CCOC(=O)CNC(=O)c2cccc(I)c2)C1=O)C(=O)O (some centres not stated)

Dose/g [1]: 0.95%
Dose/g [2]: 0.04%
Dose/organ [3]: 0.18%
Dose/organ [4]: 0.01%
Dose/organ [5]: 6.42%
Dose/organ [6]: 0.04%
Dose/organ [7]: 92.86%
Dose/organ [8]: 0.43%
Dose/organ [9]: 0.03%
Dose/organ [10]: 0.02%
Dose/organ [11]: 0.09%
Dose/organ [12]: 10.73%
Dose/g [13]: 0.28%
Dose/organ [14]: 9.45%
Dose/organ [15]: 0.02%
Dose/organ [16]: 0.7%
Dose/organ [17]: 0.01%
Dose/organ [18]: 0.14%
Dose/organ [19]: 1.53%
Dose/organ [20]: 0.02%
Dose/organ [21]: 1.83%
Dose/organ [22]: 3.26%
Dose/organ [23]: 6.96%
Dose/organ [24]: 0.02%
Dose/organ [25]: 0.01%
Dose/g [26]: 0.11%
Dose/organ [27]: 0.07%
Dose/organ [28]: 0.16%
Dose/g [29]: 1.16%
Dose/organ [30]: 0.65%
Dose/organ [31]: 0.32%
Dose/organ [32]: 1.71%
Dose/organ [33]: 0.36%
Dose/organ [34]: 2.82%
Dose/organ [35]: 0.01%
Dose/organ [36]: 0.02%
Dose/organ [37]: 0.8%
Dose/organ [38]: 63.2%
Dose/organ [39]: 4.18%
Dose/organ [40]: 0.31%
Dose/organ [41]: 0.07%
Dose/organ [42]: 21.18%
Dose/organ [43]: 0.41%
Dose/organ [44]: 6.42%
Dose/organ [45]: 0.16%
Dose/organ [46]: 83.9%
Compound: CN[C@@H](CCCCN)C(=O)NC(=O)c1cccc(I)c1
